Data as given in US20230047825A1, “ANTIMICROBIAL PEPTIDES” (priority 2019, published 2023).
“And” between values parts separate entries of the source, which are not always exact repeats. Equal entries are not always repeated. Marks after values point to notes of the source that are not given here. Where a SMILES comes first, the peptide text is derived from it.

Experiment: Maximum Tolerated Dose (MTD) assessment, IV TID q8h: mortality, body weight, clinical observations
Type: in vivo, mouse
Parameters: key to Irritability / Hyperactivity / Inc. Startle / Inc. Touch / Dec. Startle Response / Dec. Touch Response / Inc. Exploration / Dec. Exploration / Pinna / Placing / Tremor / Dec. Spont. Activity / Straub Tail / Reactivity / Righting / Ataxia / Convulsion C.T.C-T / Low Limb Post / Abdominal Tone / Limb Tone / Grip Strength / Salivation F.V. / Lacrimation / Diarrhea / Body Temperature / Piloerection / Inc. Palpebral Size / Dec. Palpebral Size / Others / Death: “−” no effects; “±”: Slight to moderate effects; +: Severe effects; “C.”: Cyanosis; “D.”: Depth; E: Edema
Details: for Body Weight, individual animals No. 1-4 / Mortality (total number of deaths/total number of animals): IV; for Body Temperature / Death / Dec. Palpebral Size / Diarrhea / Inc. Palpebral Size / Lacrimation / Others / Piloerection / Respiration / Salivation F.V. / Skin Color: AUTONOMIC; for Body Temperature / Death / Dec. Palpebral Size / Diarrhea / Inc. Palpebral Size / Lacrimation / Others / Piloerection / Respiration / Salivation F.V. / Skin Color / Dec. Exploration / Dec. Startle Response / Dec. Touch Response / Hyperactivity / Inc. Exploration / Inc. Startle / Inc. Touch / Irritability / Pinna / Placing / Ataxia / Convulsion C.T.C-T / Dec. Spont. Activity / Grip Strength / Limb Tone / Low Limb Post / Reactivity / Righting / Straub Tail / Tremor / Abdominal Tone: 5 minutes after 1st dosing, ICR mice, animals No. 1-4; for Dec. Exploration / Dec. Startle Response / Dec. Touch Response / Hyperactivity / Inc. Exploration / Inc. Startle / Inc. Touch / Irritability / Pinna / Placing: BEHAVIORAL; for Ataxia / Convulsion C.T.C-T / Dec. Spont. Activity / Grip Strength / Limb Tone / Low Limb Post / Reactivity / Righting / Straub Tail / Tremor / Abdominal Tone: NEUROLOGIC
Experimental: Tolerability analysis was conducted to determine the upper limit of D-PLEUROCIDIN-KR dosage. Test article solutions were intravenously (IV) administered to immunocompetent ICR mice with the dose schedule and concentrations indicated in the study design in the table below.
The animals were not infected. Doses were IV administered thrice (TID) with 8 h intervals (q8h) between doses. Animals were humanely euthanized after 3 days of the last treatment or at humane endpoints.
The MTD assessment was performed with immunocompetent female ICR mice, weighing 22 f 2 g. All animals were specific pathogen free.
Test articles were administered to animals by IV injections following the dose schedule, volumes, and concentrations indicated the Table above for MTD study. […] Animals were humanely euthanized if severe acute toxicity was observed during the experimental period.
The adverse effects were monitored at 5 minutes via cage-side observation after each subsequent IV administration on Day 1. Animals were observed again for mortality at 72 h after the last treatment. Body weights were recorded before each treatment and at 72 h after the last treatment. If overt toxicity was observed after the 1st or 2nd dose of a group, the 2nd or 3rd dose of that group was not administered.
Any adverse events observed were summarized. List of scores from observation assessments were also recorded.

[1] = 5 mg/kg, TID q8h, 24 h of 3rd dosing
[2] = 5 mg/kg, TID q8h, 48 h of 3rd dosing
[3] = 5 mg/kg, TID q8h, 72 h of 3rd dosing
[4] = 10 mg/kg, 24 h of 3rd dosing (2nd and 3rd doses not administered)
[5] = 10 mg/kg, 48 h of 3rd dosing (2nd and 3rd doses not administered)
[6] = 10 mg/kg, 72 h of 3rd dosing (2nd and 3rd doses not administered)

CC(C)C[C@@H](NC(=O)[C@@H](Cc1ccc(O)cc1)NC(=O)[C@@H](Cc1c[nH]cn1)NC(=O)[C@H](NC(=O)[C@@H](CC(C)C)NC(=O)[C@@H](C)NC(=O)[C@@H](C)NC(=O)[C@@H](CCCNC(=N)N)NC(=O)CNC(=O)[C@H](NC(=O)[C@@H](Cc1c[nH]cn1)NC(=O)[C@@H](CCCNC(=N)N)NC(=O)CNC(=O)[C@H](NC(=O)[C@@H](Cc1c[nH]cn1)NC(=O)[C@@H](C)NC(=O)[C@@H](C)NC(=O)[C@@H](CCCNC(=N)N)NC(=O)[C@@H](CCCNC(=N)N)NC(=O)[C@@H](Cc1ccccc1)NC(=O)[C@@H](Cc1ccccc1)NC(=O)[C@@H](CO)NC(=O)CNC(=O)[C@@H](Cc1c[nH]c2ccccc12)NC(=O)CN)C(C)C)C(C)C)[C@H](C)O)C(N)=O [D-pleurocidin-KR] (HELM PEPTIDE1{G.[dW].G.[dS].[dF].[dF].[dR].[dR].[dA].[dA].[dH].[dV].G.[dR].[dH].[dV].G.[dR].[dA].[dA].[dL].[dT].[dH].[dY].[dL].[am]}$$$$V2.0; N-terminus assumed)
adverse effects after the first dose administration (5 mg/kg): severe cyanosis, labored respiration and edema | Body Weight, individual animals No. 1-4 (5 mg/kg, TID q8h, 1st dosing (recorded before treatment)): 25 g (3×) and 23 g | Body Weight, individual animals No. 1-4 (5 mg/kg, TID q8h, 2nd dosing): 25 g (3×) and 23 g | Body Weight, individual animals No. 1-4 (5 mg/kg, TID q8h, 3rd dosing): 25 g and 24 g (2×) and 23 g | Body Weight, individual animals No. 1-4 [1]: 26 g and 25 g (2×) and 23 g | Mortality (total number of deaths/total number of animals) [1]: 0/4 | Body Weight, individual animals No. 1-4 [2]: 25 g (3×) and 23 g | Mortality (total number of deaths/total number of animals) [2]: 0/4 | Body Weight, individual animals No. 1-4 [3]: 26 g (3×) and 24 g | Mortality (total number of deaths/total number of animals) [3]: 0/4 | Mortality (total number of deaths/total number of animals) (5 mg/kg, TID, q8h, 5 min of 1st dosing): 0/4 | Mortality (total number of deaths/total number of animals) (5 mg/kg, TID, q8h, 5 min of 2nd dosing): 0/4 | Mortality (total number of deaths/total number of animals) (5 mg/kg, TID, q8h, 5 min of 3rd dosing): 0/4 | Mortality (total number of deaths/total number of animals) (5 mg/kg, TID, q8h, 1 h of 1st dosing): 0/4 | Mortality (total number of deaths/total number of animals) (5 mg/kg, TID, q8h, 1 h of 2nd dosing): 0/4 | Mortality (total number of deaths/total number of animals) (5 mg/kg, TID, q8h, 1 h of 3rd dosing): 0/4 | mortality after the 1st dosing (10 mg/kg): one of the four animals was found dead | Body Weight, individual animals No. 1-4 (10 mg/kg, 1st dosing (recorded before treatment)): 22 g (2×) and 23 g (2×) | Body Weight, individual animals No. 1-4 (10 mg/kg, 2nd dosing (2nd and 3rd doses not administered)): 21 g (2×) and dead and 23 g | Body Weight, individual animals No. 1-4 (10 mg/kg, 3rd dosing (2nd and 3rd doses not administered)): 21* g (2×) and 23* g | Mortality (total number of deaths/total number of animals) (10 mg/kg, 5 min of 1st dosing): 0/4 | Mortality (total number of deaths/total number of animals) (10 mg/kg, 5 min of 2nd dosing (2nd and 3rd doses not administered)): 1/4 | Mortality (total number of deaths/total number of animals) (10 mg/kg, 5 min of 3rd dosing (2nd and 3rd doses not administered)): 1/4 | Mortality (total number of deaths/total number of animals) (10 mg/kg, 1 h of 1st dosing): 1/4 | Mortality (total number of deaths/total number of animals) (10 mg/kg, 1 h of 2nd dosing (2nd and 3rd doses not administered)): 1/4 | Mortality (total number of deaths/total number of animals) (10 mg/kg, 1 h of 3rd dosing (2nd and 3rd doses not administered)): 1/4 | Body Weight, individual animals No. 1-4 [4]: 21* g (2×) and 24* g | Mortality (total number of deaths/total number of animals) [4]: 1/4 | Body Weight, individual animals No. 1-4 [5]: 21* g (2×) and 24* g | Mortality (total number of deaths/total number of animals) [5]: 1/4 | Body Weight, individual animals No. 1-4 [6]: 22* g (2×) and 23* g | Mortality (total number of deaths/total number of animals) [6]: 1/4 | tolerability i.v. in ICR mice (15 mg/kg/24h i.v. (data not shown)): tolerated | Body Weight, individual animals No. 1-4 (30 mg/kg, 1st dosing (recorded before treatment)): 21 g and 22 g and 23 g and 24 g | Body Weight, individual animals No. 1-4 (30 mg/kg, 2nd dosing): dead | Mortality (total number of deaths/total number of animals) (30 mg/kg, 5 min of 1st dosing): All animals were found dead and 4/4 | Mortality (total number of deaths/total number of animals) (30 mg/kg, 1 h of 1st dosing): All dead | Mortality (total number of deaths/total number of animals) (30 mg/kg, 1 h of 3rd dosing): All dead | tolerability (10 and 30 mg/kg dosages): not tolerated | Body Temperature (5 mg/kg IV): − | Death (5 mg/kg IV): − | Dec. Palpebral Size (5 mg/kg IV): − | Diarrhea (5 mg/kg IV): − | Inc. Palpebral Size (5 mg/kg IV): − | Lacrimation (5 mg/kg IV): − | Others (5 mg/kg IV): E | Piloerection (5 mg/kg IV): − | Respiration (5 mg/kg IV): D± | Salivation F.V. (5 mg/kg IV): − | Skin Color (5 mg/kg IV): C± | Body Temperature (10 mg/kg IV): − | Death (10 mg/kg IV): − | Dec. Palpebral Size (10 mg/kg IV): − | Diarrhea (10 mg/kg IV): − | Inc. Palpebral Size (10 mg/kg IV): − | Lacrimation (10 mg/kg IV): − | Others (10 mg/kg IV): E | Piloerection (10 mg/kg IV): − | Respiration (10 mg/kg IV): D± | Salivation F.V. (10 mg/kg IV): − | Skin Color (10 mg/kg IV): C± | Death (30 mg/kg IV): + | Dec. Exploration (5 mg/kg IV): − | Dec. Startle Response (5 mg/kg IV): − | Dec. Touch Response (5 mg/kg IV): − | Hyperactivity (5 mg/kg IV): − | Inc. Exploration (5 mg/kg IV): − | Inc. Startle (5 mg/kg IV): − | Inc. Touch (5 mg/kg IV): − | Irritability (5 mg/kg IV): − | Pinna (5 mg/kg IV): − | Placing (5 mg/kg IV): − | Hyperactivity (10 mg/kg IV): − | Inc. Exploration (10 mg/kg IV): − | Inc. Startle (10 mg/kg IV): − | Inc. Touch (10 mg/kg IV): − | Irritability (10 mg/kg IV): − | Dec. Exploration (10 mg/kg IV, 10 mg/kg): ± and + | Dec. Startle Response (10 mg/kg IV, 10 mg/kg): − and ± | Dec. Touch Response (10 mg/kg IV, 10 mg/kg): ± and + | Pinna (10 mg/kg IV, 10 mg/kg): ± and + | Placing (10 mg/kg IV, 10 mg/kg): ± and − | Ataxia (5 mg/kg IV): − | Convulsion C.T.C-T (5 mg/kg IV): − | Dec. Spont. Activity (5 mg/kg IV): − | Grip Strength (5 mg/kg IV): − | Limb Tone (5 mg/kg IV): − | Low Limb Post (5 mg/kg IV): − | Reactivity (5 mg/kg IV): − | Righting (5 mg/kg IV): − | Straub Tail (5 mg/kg IV): − | Tremor (5 mg/kg IV): − | Abdominal Tone (5 mg/kg IV, 5 mg/kg): − and ± | Ataxia (10 mg/kg IV): ± | Convulsion C.T.C-T (10 mg/kg IV): − | Dec. Spont. Activity (10 mg/kg IV): ± | Limb Tone (10 mg/kg IV): + | Reactivity (10 mg/kg IV): − | Righting (10 mg/kg IV): − | Straub Tail (10 mg/kg IV): − | Tremor (10 mg/kg IV): − | Abdominal Tone (10 mg/kg IV, 10 mg/kg): − and + and ± | Grip Strength (10 mg/kg IV, 10 mg/kg): ± and − | Low Limb Post (10 mg/kg IV, 10 mg/kg): ± and − | in vivo therapeutic index (before dose optimisation, tolerated dose vs effective dose): approximately 20 fold
